Laboratory results as given in PubChem BioAssay AID330 (DTP/NCI, 2004).
Where “and” joins values, the source holds several entries; their conditions need not be identical. Equal entries are not always repeated. Toxic doses and inconclusive results are not listed. Rule for the calls: active = survival T/C of 150% or more; inactive = T/C below 125% in these data.

Test system: P388 leukemia ip, CD2F1 mice, survival T/C
Test: NCI In Vivo Anticancer Drug Screen. Data for tumor model P388 Leukemia (intraperitoneal) in CD2F1 (CDF1) mice
Details: endpoint: median survival time, higher = longer survival
Method in brief: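 Mice carrying the transplanted tumor received test compound or vehicle. Survival was recorded in each group, and the value is the treated-group measurement divided by that of the vehicle-treated control group.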

[1] = dose: 60.0 mg/kg/injection, schedule: Q01DX005 (ip), vehicle: saline with Tween-80
[2] = dose: 50.0 mg/kg/injection, schedule: Q01DX005 (ip), vehicle: saline
[3] = dose: 100.0 mg/kg/injection, schedule: Q01DX005 (ip), vehicle: saline
[4] = dose: 200.0 mg/kg/injection, schedule: Q01DX005 (ip), vehicle: saline
[5] = dose: 50.0 mg/kg/injection, schedule: Q01DX005 (ip), vehicle: saline with Tween-80
[6] = dose: 100.0 mg/kg/injection, schedule: Q01DX005 (ip), vehicle: saline with Tween-80
[7] = dose: 200.0 mg/kg/injection, schedule: Q01DX005 (ip), vehicle: saline with Tween-80
[8] = dose: 60.0 mg/kg/injection, schedule: Q01DX005 (ip), vehicle: Klucel (hydroxypropylcellulose) (HPC)
[9] = dose: 120.0 mg/kg/injection, schedule: Q01DX005 (ip), vehicle: Klucel (hydroxypropylcellulose) (HPC)
[10] = dose: 240.0 mg/kg/injection, schedule: Q01DX005 (ip), vehicle: Klucel (hydroxypropylcellulose) (HPC)
[11] = dose: 12.5 mg/kg/injection, schedule: Q01DX009 (ip), vehicle: saline with Tween-80
[12] = dose: 25.0 mg/kg/injection, schedule: Q01DX009 (ip), vehicle: saline with Tween-80
[13] = dose: 25.0 mg/kg/injection, schedule: Q04DX003 (ip), vehicle: saline with Tween-80
[14] = dose: 50.0 mg/kg/injection, schedule: Q01DX009 (ip), vehicle: saline with Tween-80
[15] = dose: 50.0 mg/kg/injection, schedule: Q04DX003 (ip), vehicle: saline with Tween-80
[16] = dose: 50.0 mg/kg/injection, schedule: Q01DX005 (ip), vehicle: Klucel (hydroxypropylcellulose) (HPC)
[17] = dose: 100.0 mg/kg/injection, schedule: Q01DX009 (ip), vehicle: saline with Tween-80
[18] = dose: 200.0 mg/kg/injection, schedule: Q01DX009 (ip), vehicle: saline with Tween-80
[19] = dose: 120.0 mg/kg/injection, schedule: Q01DX005 (ip), vehicle: saline with Tween-80
[20] = dose: 240.0 mg/kg/injection, schedule: Q01DX005 (ip), vehicle: saline with Tween-80

Measured: T/C

CN(C)CCOC(=O)Nc1ccc(Cc2ccc(NC(=O)OCCN(C)C)cc2)cc1
inactive: dose: 15.0 mg/kg/injection, schedule: Q01DX005 (ip), vehicle: saline with Tween-80 109 % of control | dose: 30.0 mg/kg/injection, schedule: Q01DX005 (ip), vehicle: saline with Tween-80 101 % of control | [1] 101 % of control and 109 % of control

CC(C)(C)NCC(O)c1ccc(O)c(CO)n1 (stereo not given)
inactive: [2] 95 % of control | [3] 102 % of control | [4] 95 % of control

CCOc1c(N=Nc2ccc(OC)cc2)c(-c2ccccc2)nn1C(=S)S
inactive: [5] 102 % of control | [6] 103 % of control | [7] 102 % of control

COc1ccc2c(c1)CCc1c(N)ncnc1-2
inactive: dose: 100.0 mg/kg/injection, schedule: Q04DX002 (ip), vehicle: saline with Tween-80 104 % of control | dose: 200.0 mg/kg/injection, schedule: Q04DX002 (ip), vehicle: saline with Tween-80 106 % of control | dose: 400.0 mg/kg/injection, schedule: Q04DX002 (ip), vehicle: saline with Tween-80 107 % of control

COc1ccc(C(=O)c2[nH]ncc2Nc2ccccc2)cc1
inactive: [8] 97 % of control | [9] 117 % of control | [10] 91 % of control

COC1=CC(=O)C(C(c2ccc(OC)cc2)N2CCOCC2)=CC1=O (stereo not given)
inactive: dose: 12.5 mg/kg/injection, schedule: Q01DX005 (ip), vehicle: saline with Tween-80 109 % of control | dose: 25.0 mg/kg/injection, schedule: Q01DX005 (ip), vehicle: saline with Tween-80 109 % of control | [5] 101 % of control and 109 % of control

Nc1nc(/C=C\c2ccccc2)cc(-c2cc(/C=C\c3ccccc3)nc(N)n2)n1
inactive: dose: 30.0 mg/kg/injection, schedule: Q01DX005 (ip), vehicle: Klucel (hydroxypropylcellulose) (HPC) 97 % of control | [8] 90 % of control and 94 % of control | [9] 97 % of control | [10] 95 % of control

COC(=O)C1=CCN2CCCC12C (stereo not given)
inactive: dose: 25.0 mg/kg/injection, schedule: Q01DX001 (ip), vehicle: saline 97 % of control | dose: 50.0 mg/kg/injection, schedule: Q01DX001 (ip), vehicle: saline 101 % of control | dose: 100.0 mg/kg/injection, schedule: Q01DX001 (ip), vehicle: saline 105 % of control

O=C(Cn1cnc2c(=S)nc[nH]c21)Oc1ccc([N+](=O)[O-])cc1
inactive: [11] 109 % of control | [12] 100 % of control | [13] 91 % of control | [14] 100 % of control | [15] 91 % of control

CC(=O)OC12CCCCC1C1(CCCCC1)N=[N+]2[O-] (stereo not given)
inactive: dose: 12.5 mg/kg/injection, schedule: Q01DX009 (ip), vehicle: other 105 % of control | dose: 25.0 mg/kg/injection, schedule: Q01DX009 (ip), vehicle: other 115 % of control | dose: 50.0 mg/kg/injection, schedule: Q01DX009 (ip), vehicle: other 100 % of control | dose: 100.0 mg/kg/injection, schedule: Q01DX009 (ip), vehicle: other 99 % of control | dose: 200.0 mg/kg/injection, schedule: Q01DX009 (ip), vehicle: other 112 % of control

CCCCCCCC/C=C\CCCCCCCC(=O)OCCSCCOC(C)=O
inactive: dose: 50.0 mg/kg/injection, schedule: Q01DX009 (ip), vehicle: Klucel (hydroxypropylcellulose) (HPC) 94 % of control | dose: 100.0 mg/kg/injection, schedule: Q01DX009 (ip), vehicle: Klucel (hydroxypropylcellulose) (HPC) 101 % of control | dose: 200.0 mg/kg/injection, schedule: Q01DX009 (ip), vehicle: Klucel (hydroxypropylcellulose) (HPC) 94 % of control

CC1C(O)C(C)C(c2ccccc2)N(C)C1c1ccccc1 (stereo not given)
inactive: [5] 100 % of control | [6] 106 % of control | [7] 106 % of control

CCOC(=O)n1oc2ccccc2c1=O
inactive: [16] 99 % of control | dose: 100.0 mg/kg/injection, schedule: Q01DX005 (ip), vehicle: Klucel (hydroxypropylcellulose) (HPC) 98 % of control | dose: 200.0 mg/kg/injection, schedule: Q01DX005 (ip), vehicle: Klucel (hydroxypropylcellulose) (HPC) 98 % of control

N#CC1CC2OC1CC(=O)C2(O)c1occc(=O)c1O (stereo not given)
inactive: [14] 100 % of control | [17] 107 % of control | [18] 105 % of control

C=CN=NNc1ccccc1OC
inactive: dose: 100.0 mg/kg/injection, schedule: Q04DX003 (ip), vehicle: saline + Tween-80 + alcohol 107 % of control | dose: 200.0 mg/kg/injection, schedule: Q04DX003 (ip), vehicle: saline + Tween-80 + alcohol 105 % of control | dose: 400.0 mg/kg/injection, schedule: Q04DX003 (ip), vehicle: saline + Tween-80 + alcohol 107 % of control

CCN(CC)Cc1cc(Nc2ccnc3cc(N(C)C)ccc23)ccc1O
inactive: dose: 6.25 mg/kg/injection, schedule: Q01DX009 (ip), vehicle: saline 103 % of control | dose: 12.5 mg/kg/injection, schedule: Q01DX009 (ip), vehicle: saline 115 % of control | dose: 25.0 mg/kg/injection, schedule: Q01DX009 (ip), vehicle: saline 115 % of control

CC(C)(C)c1cc(C#CC#Cc2cc(C(C)(C)C)cc(C(C)(C)C)c2)cc(C(C)(C)C)c1
inactive: dose: 25.0 mg/kg/injection, schedule: Q01DX005 (ip), vehicle: Klucel (hydroxypropylcellulose) (HPC) 86 % of control | [16] 86 % of control

C=C(C)C(=O)Nc1ccc(-n2[nH]c(C)c(N=Nc3ccc(N(C)C)cc3)c2=O)cc1
inactive: [5] 98 % of control | [6] 96 % of control | [7] 100 % of control

O=C(COc1ccc([N+](=O)[O-])cc1)NN1C(=O)c2ccc([N+](=O)[O-])cc2C1=O
inactive: [8] 92 % of control | [9] 91 % of control | [10] 87 % of control

O=c1[nH]n(CCc2ccccn2)c(=O)c(Cl)c1Cl
inactive: [5] 96 % of control | [6] 100 % of control | [7] 92 % of control

NNc1cccc(C(F)(F)F)c1
inactive: [11] 100 % of control | [12] 90 % of control | [13] 100 % of control | [14] 95 % of control | [15] 105 % of control | dose: 100.0 mg/kg/injection, schedule: Q04DX003 (ip), vehicle: saline with Tween-80 100 % of control

O=C(O)C1C(C(=O)O)C2(Cl)C(Cl)=C(Cl)C1(Cl)C2(Cl)Cl.[Mn] (stereo not given)
inactive: dose: 50.0 mg/kg/injection, schedule: Q04DX003 (ip), vehicle: saline sonified 95 % of control | dose: 100.0 mg/kg/injection, schedule: Q04DX003 (ip), vehicle: saline sonified 91 % of control

COC1=Cc2nc3ccccc3nc2OC1(C)C
inactive: [1] 110 % of control | [19] 100 % of control | [20] 92 % of control

O=P(O)(O)OCC1(O)OCC(O)C(O)C1O (stereo not given)
inactive: dose: 12.5 mg/kg/injection, schedule: Q01DX005 (ip), vehicle: saline 106 % of control | dose: 25.0 mg/kg/injection, schedule: Q01DX005 (ip), vehicle: saline 104 % of control | [2] 99 % of control and 103 % of control

N#CSCc1ccccc1Cl
inactive: dose: 2.5 mg/kg/injection, schedule: Q01DX009 (ip), vehicle: saline with Tween-80 104 % of control | dose: 5.0 mg/kg/injection, schedule: Q01DX009 (ip), vehicle: saline with Tween-80 104 % of control | dose: 10.0 mg/kg/injection, schedule: Q01DX009 (ip), vehicle: saline with Tween-80 90 % of control

CC(C)C(N)S(=O)(=O)O (stereo not given)
inactive: [14] 115 % of control | [17] 94 % of control | [18] 105 % of control

CC1(C)N=C(N)N=C(N)N1c1ccc(OCc2ccc(C(=O)Nc3cccc(S(=O)(=O)F)c3)cc2)c(Cl)c1
inactive: dose: 100.0 mg/kg/injection, schedule: Q04DX003 (ip), vehicle: saline 86 % of control
active: dose: 50.0 mg/kg/injection, schedule: Q04DX003 (ip), vehicle: saline 181 % of control

O=[N+]([O-])c1ccc(Oc2c3ccccc3nc3ccccc23)cc1
inactive: [5] 90 % of control | [6] 90 % of control | [7] 93 % of control

CCOC(=O)CCCCCO[Si](c1ccccc1)(c1ccccc1)C(C)(C)C
inactive: [1] 110 % of control | [19] 99 % of control | [20] 88 % of control

c1ccc(C23CCCCC2=Nc2ccccc23)cc1 (stereo not given)
inactive: [2] 104 % of control | [3] 105 % of control | [4] 107 % of control
